Each structure is given as a SMILES string.

From patent US8143254B2, “Methods for modulating ion channels” (Cornell Research Foundation, Inc., priority 2005, dated 2012) come the findings set out here.

The target of test [1] is T1, Kv3.4 (UniProt Q63734).
T1 construct: IC50; other: Kv3.4, logistic dose response fit; effect on Kv3.4 currents; other: 1 mM, bath applied; slope of dose response curve; other: Kv3.4
T1 sequence (Q63734 1-625): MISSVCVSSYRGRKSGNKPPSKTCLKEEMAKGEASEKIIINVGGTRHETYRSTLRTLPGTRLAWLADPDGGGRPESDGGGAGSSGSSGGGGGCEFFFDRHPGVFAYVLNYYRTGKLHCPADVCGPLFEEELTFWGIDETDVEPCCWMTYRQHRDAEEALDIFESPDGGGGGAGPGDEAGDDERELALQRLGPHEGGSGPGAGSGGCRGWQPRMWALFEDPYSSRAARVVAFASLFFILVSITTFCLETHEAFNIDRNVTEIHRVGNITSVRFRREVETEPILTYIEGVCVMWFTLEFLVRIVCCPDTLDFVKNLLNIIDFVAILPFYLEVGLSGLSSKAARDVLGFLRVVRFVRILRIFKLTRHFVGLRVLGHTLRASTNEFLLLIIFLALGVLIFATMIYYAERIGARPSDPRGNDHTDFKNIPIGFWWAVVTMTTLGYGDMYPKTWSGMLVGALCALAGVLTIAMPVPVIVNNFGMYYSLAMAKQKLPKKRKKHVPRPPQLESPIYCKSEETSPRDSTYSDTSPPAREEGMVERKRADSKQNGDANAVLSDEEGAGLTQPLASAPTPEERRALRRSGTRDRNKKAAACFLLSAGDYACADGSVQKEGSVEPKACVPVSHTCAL
Briefly: TEVC of X. laevis oocytes expressing Kv3.4. The following applies: 1 mM, bath applied. It is filed as cell-based. The text has this: Kv2.1 mutants were constructed using the QuickChange Multi Site-Directed Mutagenesis Kit (Stratagene, La Jolla, Calif.). […] For oocyte expression, Kv3.4 was in pBF1, Kv4.2 was in pRAT. cRNA transcripts were produced from SacII-linearized (Kv2.1), Mlullinearized (Kv3.4) and Not1-linearized (Kv4.2) DNA templates using the T3 (Kv2.1), SP6 (Kv3.4) and T7 (Kv4.2) mMessage mMachine kits (Ambion, Austin, Tex.). cRNA was quantified by spectrophotometry and its size integrity verified by gel electophoresis. Defolliculated stage V and VI Xenopus laevis oocytes (purchased from Nasco, Grand Island, N.Y.) were injected with 5 ng of cRNA encoding Kv2.1, Kv3.4 or Kv4.2. Chinese Hamster Ovary (CHO) cells were transfected with 0.25 μg Kv2.1 cDNA, 2 μg blank plasmid and 2 μg Green fluorescent Protein in pBOB using Supetfect transfection reagent (Qiagen) 24 hours before whole-cell voltage clamp studies.
Oocytes were bathed in a small-volume Warner oocyte bath and viewed with a Fisher dissection microscope. Bath solution for whole-cell oocyte recordings was (in mM): 96 NaCl, 4 KCl, 0.7 MgCl2, 1 CaCl2, 10 HEPES (pH 7.4); whole-cell oocyte TEVC pipettes were of 0.2-2 M resistance when filled with 3 M KCl. Experiments were performed 24-48 hours after cRNA injection. For assessment of current-voltage relationships in the absence or presence of dabco derivatives, oocytes were held at −80 mV, stepped for 2 seconds at voltages between −80 mV and +60 mV in 20 mV steps (Kv2.1) or between −80 and +50 mV in 10 mV steps (Kv3.4), then held for 500 ms at −40 mV before returning to the holding potential. For assessment of block during wash-in of dabco derivatives at a single voltage, oocytes were held at −80 mV, and repetitively stepped to 0 mV for 2 s with an interpulse interval of 10 s or 60 s as indicated. A range of concentrations of dabco or dabco derivatives were washed in via the bath solution during repetitive single-voltage pulses (after an initial period of 5 pulses with control solution to ensure current stabilization) until equilibrium block was achieved, to establish dose-responses. […] Washout was performed after the highest concentration of blocker was washed in. In cases where washout was achieved, only those recordings in which current returned to within 10% of original current level were used for construction of dose-response curves. […] As controls for this protection analysis, JC638.2a or MTSET were washed in alone until equilibrium block, then washed out.
Data analysis: Current-voltage relationships were obtained by measuring peak current during depolarizing pulses. Inhibition constants for DABCO blockers were calculated after generating a dose response curve by fitting with a logistic dose-response function y=A2+[A1−A2/1+(x/x0)^p], where A1 is the maximum response plateau, A2 is the minimum response plateau, x is drug concentrator, x0 is the IC50, and p the Hill slope. Data analysis was performed using […] 9 (Axon Instruments, Foster City, Calif.) and tabulated in Excel 5.0. Graphs were generated using Origin 6.1. Data are expressed as mean±SEM, with n specifying the number of independent experiments. Statistical significance was assessed by one-way ANOVA with p<0.05 being indicative of significance.

Test [2] addresses T2, Kv2.1 (Rattus norvegicus, UniProt P15387).
T2 construct: expressed in transfected cells; host or cells: Xenopus laevis oocytes (cRNA injection, pGA1 vector)
The experiment in a line: Two-electrode voltage clamp (TEVC) of Xenopus oocytes expressing Kv2.1, bath-applied compound. The format is cell-based. The following applies: for effect on Kv2.1 currents: 1 mM, bath applied. An excerpt:
The ion channel subunit genes are in expression vectors that facilitate in vitro transcription of channel cRNA using the Ambion mMessage mMachine in vitro transcription kit. cDNA constructs are column-purified, linearized with the appropriate restriction enzyme that cuts a single site following the polyA tail, then purified by precipitation and transcribed in vitro using a promoter, such as T7, T3 and SP6. Transcribed cRNA is purified by precipitation and resuspended in RNAse-free water ready for injection. Each transcription can provide enough cRNA for several months of experiments.
Stage V-VI Xenopus oocytes are separated into small groups using forceps, defolliculated by agitation in Ca^2+-free Ringer solution containing collagenase for one hour, washed, then stored at 15° C. in full Ringers solution before injection. cRNA sufficient to give 1-10 μA of current at physiological voltages for each channel type is injected into Xenopus oocytes (selected by appearance for overall health and uniformity of color) using a Sutter manual injector (typically 0.1-5 ng cRNA in a volume of 25-50 nl). The oocytes are then stored for 1-3 days at 15° C. before TEVC recording. Beta subunit cRNA is co-injected as appropriate, typically 2 ng per oocyte.
Whole cell oocyte experiments are performed using a Warner OC-725C amplifier and pClamp9 software with oocytes bathed in a small-volume Warner oocyte bath and viewed with a Fisher dissection microscope. Bath solution for whole cell oocyte recordings, e.g., for potassium channel analysis, is generally (in mM): 96 NaCl, 4 KCl, 1 MgCl2, 0.3 CaCl2, 10 HEPES (Ph 7.4); whole-cell oocyte TEVC pipettes are filled with 3 M KCl. Oocyte patches are studies using an Axon Instruments small-volume bath, viewed with an Olympus IX50 inverted microscope, and recordings made using an Axon Multiclamp 700 A Amplifier and pCLAMP9 software (Axon Instruments). Extracellular solution, e.g., for potassium channel analysis, is generally (in mM): 135 NaCl, 5 KCl, 1.2 MgCl2, 5 HEPES, 2.5 CaCl2, 10 D-glucose (Ph 7.4). Intracellular solution, e.g., for potassium channel analysis, is generally (in mM): 10 NaCl, 117 KCl, 2 MgCl2, 11 HEPES, 11 EGTA, ICaCl2 (Ph 7.2). Patch pipettes are approximately 3-5 MΩ resistance when filled with recording solution.
Quantitative aspects of ion action on ion channels are compared using standard pulse protocols. Pulse times and voltages will vary according to which currents are being studied. […] Drug inhibition constants are calculated after generating a dose response curve by fitting with a logistic dose-response function (see equation (i) below). Typically, 5-20 cells per group are recorded from for heterologous expression experiments. Values are to be stated as mean±SEM with statistical significance set at p<0.05 (unpaired students t-test, ANOVA or the Mann-Whitney Rank Sum Test as appropriate).
Injected oocytes, bathed in bath solution containing 4 mM KCl, unless otherwise stated, are impaled with current and voltage electrodes and clamped at −80 mV holding potential using a Warner OC-725C amplifier. […] Drug concentrations are chosen to ensure inhibition values between 0 and 90-100% with at least 3 values within the linear portion of the curve so that the inhibition constant (Ki) can be calculated accurately by fitting with a logistic dose-response function (formula (i)) using the Origin 6.1 graph package.
Kv2.1 mutants were constructed using the QuickChange Multi Site-Directed Mutagenesis Kit (Stratagene, La Jolla, Calif.). […] For oocyte expression, Kv3.4 was in pBF1, Kv4.2 was in pRAT. cRNA transcripts were produced from SacII-linearized (Kv2.1), Mlullinearized (Kv3.4) and Not1-linearized (Kv4.2) DNA templates using the T3 (Kv2.1), SP6 (Kv3.4) and T7 (Kv4.2) mMessage mMachine kits (Ambion, Austin, Tex.). cRNA was quantified by spectrophotometry and its size integrity verified by gel electophoresis.
(Two-electrode voltage clamp holds a large cell at a set potential and records current.)

T2 sequence (P15387 whole entry): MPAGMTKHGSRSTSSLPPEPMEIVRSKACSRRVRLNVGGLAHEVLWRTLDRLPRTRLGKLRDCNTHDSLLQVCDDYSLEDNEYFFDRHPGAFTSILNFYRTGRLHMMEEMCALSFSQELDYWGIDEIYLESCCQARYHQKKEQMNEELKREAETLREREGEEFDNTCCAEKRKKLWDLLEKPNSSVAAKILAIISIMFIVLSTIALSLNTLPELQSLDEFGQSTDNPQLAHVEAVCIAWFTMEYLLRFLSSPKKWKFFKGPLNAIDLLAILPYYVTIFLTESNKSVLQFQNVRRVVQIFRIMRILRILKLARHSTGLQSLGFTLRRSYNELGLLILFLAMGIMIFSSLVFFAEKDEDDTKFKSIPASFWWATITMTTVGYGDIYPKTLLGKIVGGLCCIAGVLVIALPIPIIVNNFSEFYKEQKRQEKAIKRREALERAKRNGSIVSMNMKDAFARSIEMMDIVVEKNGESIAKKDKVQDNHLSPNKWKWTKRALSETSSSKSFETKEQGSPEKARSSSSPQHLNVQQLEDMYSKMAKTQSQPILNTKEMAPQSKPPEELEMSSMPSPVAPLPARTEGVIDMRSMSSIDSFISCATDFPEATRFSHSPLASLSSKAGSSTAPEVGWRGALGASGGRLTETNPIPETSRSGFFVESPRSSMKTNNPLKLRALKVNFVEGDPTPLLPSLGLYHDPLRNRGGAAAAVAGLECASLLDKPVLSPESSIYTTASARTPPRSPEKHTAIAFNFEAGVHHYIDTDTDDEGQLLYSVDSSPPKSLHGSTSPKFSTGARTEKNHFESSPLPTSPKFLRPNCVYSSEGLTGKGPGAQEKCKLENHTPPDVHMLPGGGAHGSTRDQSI

Consider `C1CN2CCN1CC2` [DABCO, 1,4-diazabicyclo[2.2.2]octane, reference compound], for which, in test [1], the “effect on Kv3.4 currents” value is reported as “no effects”. Moreover, the “effect on Kv2.1 currents” value in test [2] is listed as “no effects”.

With `C(CCCCCC[N+]12CCN(CC1)CC2)CCCCC[N+]12CCN(CC1)CC2` [TG28, 1,12-[bis(4-aza-1-azoniabicyclo[2.2.2]octanyl)]dodecane], in test [2] (250 μM TG28, 0 mV), the “effect on Kv2.1 current during wash-in” value was “rapid reduction of current (block) followed by slow, partial restoration of current (partial opening)”. Moreover, the “Kv2.1 current level after washout relative to pre-drug current” value in test [2] (250 μM TG28 washed out, on average) is on record as “two-fold larger than the pre-drug current”. For the same compound, the “effect on Kv2.1 currents” value in test [2] is given as “block”.
